Experimental data published in patent US8076094B2, “Phosphorylation of histone H3 at threonine 11—a novel epigenetic mark for transcriptional regulation” (Universitaetsklinixum Freiburg, priority 2007, dated 2011).
“Also recorded” adds a separate entry of the source.

Assays:
[1] = system: androgen-induced expression of endogenous AR target genes PSA and KLK2 in LNCaP cells; test: Quantitative RT-PCR of endogenous AR target genes in LNCaP cells; assay type: cell-based; settings: presence or absence of R1881, FIG. 1a, b
Description: (§1) To initiate our study, we analysed the effect of PRK1 knockdown on the expression of endogenous AR target genes.
Quantitative RT-PCR and statistical analysis were performed as described^5. The primers for GAPDH, PSA, and KLK2 were described previously^5.

[2] = system: AR-dependent reporters in LNCaP cells; test: AR-dependent reporter (luciferase) assay in LNCaP cells; assay type: cell-based; settings: R1881, FIG. 5a, b
Description: CV1 and LNCaP cells were cultured and transfected as described^2. The following amounts were transfected per well: 500 ng of MMTV-LUC, Probasin-LUC, or PSA-LUC; 25 ng of AR expression plasmid; 200 ng (FIG. 3e) or 400 ng (FIG. 3c, d) expression plasmids of LSD1 or JMJD2C, 150 ng PRK1 K644E, 1000 ng expression plasmid of miRNA-control, miRNA1-PRK1, or miRNA2-PRK1 (FIG. 5a). Cells were cultivated for 18 hours in the presence or absence of 1×10^−10 M R1881 (Sigma), 2.5×10^−6 M (FIG. 3d) or 4.5×10^−6 M (FIG. 3c) Ro318220 (Roche) as indicated. Luciferase activity was assayed as described^2. All experiments were repeated at least four times in duplicate.

[3] = system: PRK1; test: In vitro kinase assay; assay type: biochemical
Description: To understand how association of PRK1 and AR with chromatin results in increased gene expression, we tested whether PRK1 directly phosphorylates the N-terminal tail of histone H3. Myc-PRK1 and the flag-tagged kinase dead mutant PRK1 K644E^2 were immunoprecipitated from 293 cell lysates with an α-myc or an α-flag antibody, respectively (FIG. 6a, b), and incubated with bacterially expressed and purified GST-H3 1-44 or GST control protein. GST-H3 1-44 is phosphorylated by PRK1, but not by PRK1 K644E (FIG. 2a).
In addition, we incubated nucleosomes purified from HeLa cells with recombinant PRK1 in the presence or absence of Ro318220. […] This phosphorylation is blocked by Ro318220 (FIG. 2c).
The kinase assays were performed as described^11. 10 μg GST-tagged H3 proteins or 1 μg of nucleosomes purified from HeLa cells^12 were incubated with immunoprecipitated PRK1 proteins (FIG. 2a) or 1 μg purified recombinant PRK1 (FIG. 2b, c; ProQinase GmbH) for 0 to 10 min (FIG. 2c) or 20 min (FIG. 2a, b) at 30° C. in kinase buffer containing 20 mM Tris-HCl pH 7.5, 20 μM ATP, 8 mM MgCl2, and 5 μCi (γ-^32P) ATP. The reaction mixture was analysed by SDS-PAGE followed by autoradiography or Western blotting using antibodies as indicated.

[4] = system: PSA and KLK2 promoters in LNCaP cells; test: Chromatin immunoprecipitation (ChIP) at AREs of PSA and KLK2 promoters in LNCaP cells; assay type: cell-based; settings: for ligand-induced phosphorylation of H3T11 at AREs of PSA and KLK2 promoters: 1×10^−8 M R1881 45 min, FIG. 2d, e; for S5-P CTD pol II at the promoters of PSA and KLK2 / recruitment of RNA polymerase II (α-NTD pol II): Ro318220 1×10^−5 M, FIG. 3f, g
Description: Chromatin Immunoprecipitation ChIP and Re-ChIP experiments were performed as described^5,9. LNCaP cells were cultured for 45 min (FIGS. 1c, 2d, 2e) or 210 min (FIG. 3a, b, f, g) in the presence or absence of 1×10^−8 M R1881 as indicated. Ro318220 (1×10^−5 M) was added to the LNCaP cells (FIG. 3b, g) 60 min before addition of R1881. Three days before harvesting, LNCaP cells were transfected with stealth RNAi (ctr: 5′-[…]-3′ (Sequence Protocol: 5) (SEQ ID NO: 5); PRK1: 5′-[…]-3′ (Sequence Protocol: 6) (SEQ ID NO: 6); Invitrogen) following the manufacturer's instructions. Immunoprecipitation was performed with specific antibodies (α-monoMeH3K9, α-diMeH3K9, α-triMeH3K9, α-acetyl-H3K9/K14, α-H3, α-AR (Upstate Biotechnology), α-S5-P CTD pol II, α-phosphoH3T11 (Abcam), α-NTD pol II (N-20, Santa Cruz), α-LSD1^5, α-JMJD2C^4, and α-PRK1) on protein A-Sepharose 4B (GE-Healthcare). For PCR, 1-5 μl out of 50 μl DNA extract was used. PCR primers for ARE I+II (PSA-459/-121), ARE III (PSA-4288/-3922), KLK2 (−343/-90), GAPDH, and U6 were described previously^5. Western Blot Analysis

[5] = system: endogenous PRK1 and AR in LNCaP cells; test: Western blot analysis of knockdown in LNCaP cells; assay type: cell-based
Source text: as §1
To determine whether PRK1 controls phosphorylation of H3T11 at promoters of AR-regulated genes in vivo, LNCaP cells were first transfected with either an unrelated control siRNA or a siRNA directed against PRK1, in the presence or absence of R1881, and then subjected to ChIP. Addition of ligand results in phosphorylation of H3T11 at the AREs of the PSA and KLK2 promoters (FIG. 2d, left panel). Androgen-induced phosphorylation at H3T11 is PRK1-dependent since it is blocked by knockdown of PRK1. […] To corroborate that androgen-induced phosphorylation of H3T11 is executed by PRK1, LNCaP cells were cultivated in the presence or absence of Ro318220 and subjected to ChIP.
Experiments were performed as described^2. Western blots were decorated as indicated.

[6] = R1881 210 min, Ro318220 1×10^−5 M 60 min before R1881, stealth RNAi three days before harvesting, FIG. 3a, b

Q: Which results are given for `Cn1cc(C2=C(c3cn(CCCSC(=N)N)c4ccccc34)C(=O)NC2=O)c2ccccc21` [Ro318220]?
A: androgen-induced expression of endogenous AR target genes (PSA, KLK2) [1]: reduce expression; also recorded: severely impedes; ligand-induced expression of AR-dependent reporters [2]: severely reduce; also recorded: strong decrease; phosphorylation of GST-H3 1-44 by PRK1 ([3]; immunoprecipitated Myc-PRK1, 20 min at 30° C., FIG. 2a): completely blocks; phosphorylation of nucleosomes at H3T11 by PRK1 ([3]; nucleosomes from HeLa cells, recombinant PRK1, 0 to 10 min, Western blot α-phosphoH3T11, FIG. 2c): blocked; ligand-induced phosphorylation of H3T11 at AREs of PSA and KLK2 promoters [4]: efficiently blocks; ligand-induced demethylation of tri-, di-, and monomethyl H3K9 [4, 6]: loss; S5-P CTD pol II at the promoters of PSA and KLK2 ([4]; R1881 210 min): loss; recruitment of RNA polymerase II (α-NTD pol II) ([4]; R1881 210 min): not affected

Q: How did the “ligand-induced phosphorylation of H3T11 at AREs of PSA and KLK2 promoters” value [4] turn out when “5′-GAAAGUCCUAGAUCCACACGCAAAU-3′ (siRNA; Stealth RNAi from Invitrogen, chemistry not given here) [siRNA directed against PRK1]” was run?
A: The value was “blocked”.

Q: And the “ligand-induced acetylation of H3K9/K14” value [4, 6]?
A: The value was “blocked”.

Q: And the “ligand-induced demethylation of tri-, di-, and monomethyl H3K9” value [4, 6]?
A: The value was “severely impaired”.

Q: And the “S5-P CTD pol II at the promoters of PSA and KLK2” value ([4]; R1881 210 min)?
A: The value was “loss”.

Q: What about the “recruitment of RNA polymerase II (α-NTD pol II)” value ([4]; R1881 210 min) of the same compound?
A: The value was “not affected”.

Q: And the “down-regulation of endogenous PRK1” value ([5]; FIG. 1a, 2d right panels)?
A: The value was “depletion is specific”.

Q: What about the “levels of endogenous AR” value ([5]; FIG. 2d right panel) of the same compound?
A: The value was “does not affect”.
